Earlier results as cited in patent US9622997B2, “Methods for treating insomnia” (Lynn Health Science Institute, Inc., priority 2012, dated 2017).
Read-outs that look alike come from different tables or passages of the source.

Legend:
[1] = tested on: First-night effect (no PA) study population; conditions: cited from earlier work; for TST: ↑ increase compared to placebo; for WASG: ↓ decrease compared to placebo, NS
[2] = tested on: 3 hour phase-advance study population; conditions: 6 mg, cited from earlier work
[3] = tested on: 2 hour phase-advance study population; conditions: ↓ decrease compared to placebo, cited from earlier work
[4] = tested on: 3 hour phase-advance study population; parameters: TST: unit not given here; conditions: cited from earlier work; for TST: ↑ increase compared to placebo; for WASG: ↓ decrease compared to placebo
[5] = tested on: 4 hour phase-advance study population; conditions: 10 mg, cited from earlier work
[6] = tested on: 4 hour phase-advance study population; conditions: 10 mg, cited from earlier work; remark: listed apart in the source
[7] = recent study; cited from earlier work
[8] = tested on: 2 hour phase-advance study population; conditions: cited from earlier work; for TST: ↑ increase compared to placebo; for WASG: ↓ decrease compared to placebo

In the case of `CCC(=O)NCC[C@@H]1CCc2ccc3c(c21)CCO3` [Ramelteon], the TST ([1]; 8 mg) is given as “↑ 17.1”, the TST ([1]; 16 mg) is given as “↑ 13.4” and the WASG ([1]; 8 mg) is given as “↓ 5.0^NS min”. The WASG ([1]; 16 mg) was “↓ 2.5^NS min”.

For `CN(C)CCC=C1c2ccccc2COc2ccccc21` [Doxepin], the TST ([2]; ↑ increase compared to placebo) is given as “↑ 51.1”, the SOL ([2]; ↓ decrease compared to placebo) is given as “↓ 15.9” and the WASG ([2]; ↓ decrease compared to placebo) is given as “↓ 40.0 min”.

In the case of `Cc1ccc(-c2nc3ccc(C)cn3c2CC(=O)N(C)C)cc1` [Zolpidem], the WASG ([3]; zolpidem 10 mg, listed as zolpidem) is given as 9.4 min, the WASG ([3]; zolpidem 10 mg) is given as “↓ 9.4 min” and the TST ([4]; 10 mg) is given as “↑ 35.7”. The TST ([4]; 15 mg) was “↑ 37.3”, the TST ([4]; NS, 5 mg) was “↑ 35.6^NS” and the TST ([4]; NS, 20 mg) was “↑ 12.8^NS”. For the same molecule, the WASG ([4]; 20 mg) was “↓ 32.3 min”, the WASG ([4]; NS, 5 mg) was “↓ 22.5^NS min” and the WASG ([4]; NS, 10 mg) was “↓ 31.2^NS min”. For the same molecule, the WASG ([4]; NS, 15 mg) was “↓ 26.9^NS min”, the TST ([5]; ↑ increase compared to placebo) was “↑ 52.8” and the WASG ([5]; ↓ decrease compared to placebo) was “↓ 35.1 min”. The TST ([6]; ↑ increase compared to placebo) was “↑ 47.8”, the WASG ([6]; ↓ decrease compared to placebo) was “↓ 24.7 min” and the “effect on sleep related GER (acid contact time)” value [7] was “markedly prolonging acid contact time”.

For `CC(=O)N(C)c1cccc(-c2ccnc3c(C(=O)c4cccs4)cnn23)c1` [Indiplon], the TST ([8]; 10 mg) is given as “↑ 11.6”, the TST ([8]; 20 mg) is given as “↑ 20.6” and the WASG ([8]; 20 mg) is given as “↓ 7.4 min”. For the same molecule, the WASG ([8]; NS, 10 mg) was “↓ 1.2^NS min”.

For `CN1C(=O)C(O)N=C(c2ccccc2)c2cc(Cl)ccc21` (stereo not drawn) [Temazepam], the WASG ([3]; NS, temazepam 15 mg) is given as “↓ 7.0^NS min”.
